Measurements reported in patent US20180222922A1, “RADIOFLUORINATED 7-AMINO-5-THIO-THIAZOLO[4,5-D]PYRIMIDINES FOR IMAGING FRACTALKINE RECEPTOR (CX3CR1)” (THE JOHNS HOPKINS UNIVERSITY, priority 2015, published 2018).
Values belong to the compound of their own block, whether it stands above or below them.

Tests used:
[1] = small animal PET imaging of 2-[18F]FBTTP in healthy mice; type: in vivo; conditions: 350 μCi via tail vein, PET at 10 min, 30 min, 1 hour and 2 hours post-injection
Procedure: (R)-2-((2-amino-5-mercaptothiazolo[4,5-d]pyrimidin-7-yl)amino)-4-methylpentan-1-ol was synthesized as previously reported (Karlstrom et al., 2013) and alkylated with 2-[^18F]fluoro-benzylbromide to produce 2-[^18F]FBTTP. 2-[^18F]fluorobenzylbromide was prepared by a one-pot microwave radiofluorination of 2-formyl-N,N,N-trimethylbenzenanilinium triflate followed by sodium borohydride reduction, and bromination with 48% HBr using a procedure analogous to that reported for the preparation of 4-[^18F]fluoro-benzylbromide (Cho et al., 2012; Ravert et al., 2014). 2-[^18F]FBTTP (350 μCi) was injected via the tail vein of healthy mice and imaged using small animal PET. Images were collected at 10, 30, 60, and 120 min post-injection. 2-[^18F]FBTTP was prepared in a decay corrected yield of 10.2% in a specific activity of 1500 Ci/mmol (55,500 GBq/mmol) in a total synthesis time of 110 min.
To evaluate in vivo pharmacokinetics of 2-[^18F]FBTTP, 350 μCi of the radiotracer was formulated in 200 μL of saline with 10% ethanol and injected into healthy mice via the tail vein. The images were collected at 10 min, 30 min, 1 hour and 2 hours post-injection.

[2] = molecular target: T1, CXCR2 (Homo sapiens, UniProt P25025); conditions: cited from earlier work; for Ki: binding affinity, reported
T1 sequence (P25025 1-360): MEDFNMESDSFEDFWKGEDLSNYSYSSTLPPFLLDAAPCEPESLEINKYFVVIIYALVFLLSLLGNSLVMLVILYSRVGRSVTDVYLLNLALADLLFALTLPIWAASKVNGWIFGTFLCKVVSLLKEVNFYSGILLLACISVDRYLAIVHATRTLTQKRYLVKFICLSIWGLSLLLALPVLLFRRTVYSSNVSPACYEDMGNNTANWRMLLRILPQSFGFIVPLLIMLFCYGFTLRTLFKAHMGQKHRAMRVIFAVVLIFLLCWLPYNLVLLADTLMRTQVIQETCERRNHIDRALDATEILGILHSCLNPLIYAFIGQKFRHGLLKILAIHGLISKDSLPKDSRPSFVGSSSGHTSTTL

[3] = molecular target: T2, CX3CR1 (Homo sapiens, UniProt P49238); conditions: binding affinity, reported; cited from earlier work
T2 sequence (P49238 1-355): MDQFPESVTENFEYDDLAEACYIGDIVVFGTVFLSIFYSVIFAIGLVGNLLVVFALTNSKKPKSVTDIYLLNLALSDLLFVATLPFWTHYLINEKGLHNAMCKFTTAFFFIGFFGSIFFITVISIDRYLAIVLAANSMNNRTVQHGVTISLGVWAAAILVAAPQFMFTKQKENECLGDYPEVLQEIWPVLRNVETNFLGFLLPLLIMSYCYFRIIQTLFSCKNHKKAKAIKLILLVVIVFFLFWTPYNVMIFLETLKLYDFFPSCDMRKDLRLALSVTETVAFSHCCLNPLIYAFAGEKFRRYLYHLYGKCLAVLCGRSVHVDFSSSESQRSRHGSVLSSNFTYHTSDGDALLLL

in vivo pharmacokinetics [1]: favorable in vivo pharmacokinetics
Compound: CC(C)CC(CO)Nc1nc(SCc2ccccc2[18F])nc2nc(N)sc12 (centres unmarked) [2-[^18F]FBTTP, 2-((2-amino-5-((2-[18F]fluorobenzyl)thio)thiazolo[4,5-d]pyrimidin-7-yl)amino)-4-methylpentan-1-ol]

Compound: CC(C)C[C@H](CO)Nc1nc(SCc2ccccc2F)nc2nc(N)sc12 [Compound 9d, (R)-2-((2-amino-5-((2-fluorobenzyl)thio)thiazolo[4,5-d]pyrimidin-7-yl)amino)-4-methylpentan-1-ol]
selectivity over CXCR2 ([2]; CX3CR1 over CXCR2): 18 fold

Compound: CC(C)C[C@H](CO)Nc1nc(SC(C)c2ccccc2F)nc2nc(N)sc12 (stereo partly drawn) [Compound 9e, (2R)-2-((2-amino-5-((1-(2-fluorophenyl)ethyl)thio)thiazolo[4,5-d]pyrimidin-7-yl)amino)-4-methylpentan-1-ol]
Ki [2]: 1400 nM | Ki [3]: 4.7 nM

Compound: CC(C)C[C@H](CO)Nc1nc(SCc2ccc(Br)cc2F)nc2nc(N)sc12 [Compound 9f, (R)-2-((2-amino-5-((4-bromo-2-fluorobenzyl)thio)thiazolo[4,5-d]pyrimidin-7-yl)amino)-4-methylpentan-1-ol]
Ki [2]: 1400 nM
